# Measurements reported in paper PMC3086245 (Emerging Infectious Diseases, 2010).
# System: M2 of influenza viruses A (H1N1)
# Conditions: almost all the ORVs
compound,measurement,value
NC12CC3CC(CC(C3)C1)C2 [amantadine],susceptibility by M2 sequencing (in words),sensitive
